The values below come from patent US20190153024A1, “NOVEL SALTS AND POLYMORPHS OF SCY-078” (priority 2015, published 2019).

The nature of data set [1]: Physical and chemical stability of trifluoroacetate Types A and B and HCl Type I for 1, 2, 4 and 8 weeks. The format is physicochemical. As for the experimental part: High Power Liquid Chromatography (HPLC) Method—An Agilent 1260 HPLC with DAD detector was utilized to test solubility or to test purity and stability. […] System suitability was tested by injecting standard solutions five times in each sample sequence, and the relative standard deviation of the peak areas was less than 2%.
Physical and chemical stability evaluation of trifluoroacetate Type A, trifluoroacetate Type B, and HCl Type I was performed at 25° C./60% RH, 40° C./75% RH and 60° C. for 1, 2, 4 and 8 weeks. In the experiments, approximately 20 mg of solid was placed into a 1.5-mL glass vial. The vials were stored under 25° C./60% RH (uncapped), 40° C./75% RH (uncapped) and 60° C. (capped) conditions for 8 weeks. XRPD analysis was then employed to check the crystalline form of the solid, and HPLC was utilized to determine the purity profile at 1, 2, 4 and 8 weeks. […] The solid form change of trifluoroacetate Type A at 2 and 4 weeks was postulated to the air-exposure when the sample was taken out for XRPD characterization.

Data set [2] can be described thus: Kinetic solubility of trifluoroacetate Types A and B and HCl Type I (alternative procedure: SGF, FaSSIF and FeSSIF alternative media, acetate pH 5.5, phosphate pH 6.0 alternative media). As to conditions: for Form change: residual solid by XRPD. As for the experimental part: An alternative media (“FaSSIF alternative media”) was used to study the trifluoroacetate salts (Type A and B) and the HCl Type I salt. More specifically, the media was prepared by weighing 0.17 g of sodium phosphate monobasic (NaH2PO4, anhydrous), 0.021 g of sodium hydroxide, and 0.31 g of sodium chloride into a 50-mL volumetric flask and was dissolve with approximately 48 mL of purified water. The pH was adjusted to exactly 6.5 using 1 M HCl or 1 M NaOH and diluted to volume with purified water. 0.11 g of SIF powder was then added, stirred and sonicated until all the powder was completely dissolved. The solution was equilibrated for 2 hours at RT before use. The solution can be stored at RT for 48 hours or 4° C. for 7 days and should be equilibrated to RT before use
An alternative media (“FeSSIF alternative media”) was used to study the trifluoroacetate salts (Type A and B) and the HCl Type I salt. More specifically, the media was prepared by transferring 0.41 mL of glacial acid and weighing 0.20 g of sodium hydroxide, 0.59 g of sodium chloride into a 50-mL volumetric flask. This was dissolved with approximately 48 mL of purified water. The pH was adjusted to exactly 5.0 using 1 M HCl or 1 M NaOH and diluted to volume with purified water. 0.56 g of SIF powder was added, stirred and sonicated until all the powder is completely dissolved. The solution can be stored at RT for 48 hours or 4° C. for 7 days and should be equilibrated to RT before use.
Acetate Buffer (pH 5.5) Preparation—The acetate buffer (pH 5.5) used for the trifluoroacetate salts (Type A and B) and the HCl Type I salt was prepared by placing 0.60 g sodium acetate (NaC2H3O2.3H2O) in a 100-mL volumetric flask, adding 3 mL of 2 M acetic acid solution, and then adding purified water to volume.
An alternative media (“phosphate (pH 6.0) alternative media”) was used to study the trifluoroacetate salts (Type A and B) and the HCl Type I salt. More specifically, the media was prepared by dissolving 2.72 g of 0.2 M monobasic potassium phosphate (KH2PO4) in purified water, and diluting with purified water t 100 mL. 0.8 g of 0.2 M sodium hydroxide in purified water was diluted with purified water to 100 mL. Then 50 mL of the 0.2 M monobasic potassium phosphate solution was placed in a 200-mL volumetric flask, 5.6 mL of 0.2 M sodium hydroxide solution was added, and then purified water was added to volume.
The trifluoroacetate salts (Type A and B) and the HCl Type I salt were tested using the following alternative procedure. First, 15 mg, 36 mg or 90 mg solid was weighted into a 4-mL plastic tube, and 3 mL of relevant media was added before leaving the suspension on a rolling incubator (25 r/min). For SCF, 90 mg of solid was used. For FaSSIF, acetate buffer (pH 5.5), and phosphate buffer (pH 6.0), 15 mg solid was used. For FeSSIF, 36 mg of solid was used. 1.0 mL aliquot of the suspension was sampled for centrifugation with the supernatant submitted for HPLC and pH measurement and solid for XRPD characterization at 1 hr, 4 hr and/or 24 hrs.
The solubility of trifluoroacetate Type A, Type B and HCl Type I was measured in SGF at ambient temperature. Approximately 90 mg of solid sample was weighted into a 4-mL centrifuge tube, and 3 mL of SGF buffer was added before leaving the suspension on a rolling incubator (25 r/min). 1.0 mL aliquot of the suspension was sampled for centrifugation (10000 rpm, 3 mins) the supernatant was analyzed by HPLC and pH measurement and solid by XRPD characterization at 1 hr, 4 hr and 24 hrs, respectively.
The solubility of trifluoroacetate Type A, Type B and hydrochloride Type I was measured in the FaSSIF alternative media at ambient temperature. Approximately 15 mg of solid sample was weighted into a 4-mL plastic tube, and 3 mL of the media was added before leaving the suspension on a rolling incubator (25 r/min).

The nature of data set [3]: Form change of trifluoroacetate on storage at varying relative humidity. The data set is classed as physicochemical. As to conditions: storage for 24 hours. As for the experimental part:
To investigate transition relationship of trifluoroacetate Type A and Type B, both samples were stored in chambers with varying relative humidity to monitor any form change. […] Varying temperature (VT)-XRPD of trifluoroacetate Type A was performed.

Data set [4] can be described thus: Solid form stability on storage under ambient conditions. The following applies: 2 days. The data set is classed as physicochemical. As for the experimental part:
SCY-078 Citrate Type E: SCY-078 citrate Type E was obtained by drying a metastable solvate SCY-078 citrate Type R from MeOH/IPAc.
SCY-078 Citrate Type M: SCY-078 citrate Type M was obtained by storing SCY-078 citrate Type E in ambient conditions for 2 days. […] (onset temperatures) (FIG. 58). […] (FIG. 58).
SCY-078 Trifluoroacetate Type A is highly crystalline as shown in the XRPD (FIG. 85). […] The molar ratio of trifluoroacetate Type A (acid: freebase) was determined to be 1:1 via HPLC-IC confirmation.

The mark [5] stands for this setting: 25° C./60% RH (uncapped), 1 week.
Where [6] appears, read: 25° C./60% RH (uncapped), 2 weeks.
Where [7] appears, read: 25° C./60% RH (uncapped), 4 weeks.
Where [8] appears, read: 25° C./60% RH (uncapped), 8 weeks.
[9] abbreviates: 40° C./75% RH (uncapped), 1 week.
Where [10] appears, read: 40° C./75% RH (uncapped), 2 weeks.
Setting [11] is: 40° C./75% RH (uncapped), 4 weeks.
Where [12] appears, read: 40° C./75% RH (uncapped), 8 weeks.

On to `CC(C)[C@@H](C)[C@@]1(C)CC[C@]2(C)[C@H]3CC[C@@H]4[C@@]5(COC[C@]4(C)[C@@H](OC[C@](C)(N)C(C)(C)C)[C@H](n4ncnc4-c4ccncc4)C5)C3=CC[C@@]2(C)[C@@H]1C(=O)O.O=C(O)C(F)(F)F` [TFA Type B], for which the HPLC purity in data set [1] (setting [5]), in data set [1] (setting [6]), in data set [1] (setting [7]), in data set [1] (setting [8]), in data set [1] (setting [9]) and in data set [1] (setting [10]) was 99.9% throughout. Also, the HPLC purity is listed as 99.9% in data set [1] (setting [11]); 99.9% in data set [1] (setting [12]); 99.9% in data set [1] (60° C. (capped), 1 week); 99.9% in data set [1] (60° C. (capped), 2 weeks); 99.9% in data set [1] (60° C. (capped), 4 weeks); 99.9% in data set [1] (60° C. (capped), 8 weeks). Also, the Solid form entry in data set [1] (setting [5]), in data set [1] (setting [6]), in data set [1] (setting [7]), in data set [1] (setting [8]), in data set [1] (setting [9]) and in data set [1] (setting [10]) was “Type A” in each case. Besides, the Solid form entry in data set [1] (setting [11]) is listed as “Type A”; in data set [1] (setting [12]), “Type A”; in data set [1] (60° C. (capped), 1 week) it was “Type A”; in data set [1] (60° C. (capped), 2 weeks), “Type A”; in data set [1] (60° C. (capped), 4 weeks), “Type A”; in data set [1] (60° C. (capped), 8 weeks), “Type A”. The “Initial HPLC purity” value in data set [1] (Initial) stood at 99.9%. The Form change entry is listed as “No” in data set [2] (FeSSIF alternative media, 1 hr); “No” in data set [2] (FeSSIF alternative media, 4 hrs); “No” in data set [2] (FeSSIF alternative media, 24 hrs); “No” in data set [2] (phosphate (pH 6.0) alternative media, 4 hrs). Also, the “Form by XRPD after storage” value in data set [3] (Relativity Humidity 0%) is “Type B”; in data set [3] (Relativity Humidity 22%), “Type B”; in data set [3] (Relativity Humidity 97%) it was “Type A”.
Turning to `CC(C)[C@@H](C)[C@@]1(C)CC[C@]2(C)[C@H]3CC[C@@H]4[C@@]5(COC[C@]4(C)[C@@H](OC[C@](C)(N)C(C)(C)C)[C@H](n4ncnc4-c4ccncc4)C5)C3=CC[C@@]2(C)[C@@H]1C(=O)O.O=C(O)C(F)(F)F` [SCY-078 Trifluoroacetate Type A], in data set [1] (25° C./60% RH, 40° C./75% RH and 60° C., 8 weeks, listed as trifluoroacetate Type A), the “physical and chemical stability” value was “physically and chemically stable”. The “form change of residual solid in FaSSIF alternative media” value in data set [2] (FaSSIF alternative media, ambient temperature, listed as trifluoroacetate Type A) was “no form change was observed”. The “form change of residual solid in FeSSIF alternative media” value in data set [2] (FeSSIF alternative media, ambient temperature, listed as Trifluoroacetate Type A) is “converted to Type B”. In addition, the “form change of residual solid in SGF” value in data set [2] (SGF, ambient temperature, listed as trifluoroacetate Type A) is given as “no form change was observed”. In addition, the “solubility in acetate buffer (comparison)” value in data set [2] (acetate buffer pH 5.5, ambient temperature, 4 hr and 24 hrs) is recorded as “higher solubility”. Further, the “form change of residual solid in acetate buffer” value in data set [2] (acetate buffer pH 5.5, ambient temperature, listed as Trifluoroacetate Type A) was “no form change was observed”. In data set [2] (after an hour), the “solubility trend in FeSSIF alternative media” value was “decreasing solubility”. In addition, the “solubility in phosphate (pH 6.0) alternative media (comparison)” value in data set [2] (phosphate (pH 6.0) alternative media, ambient temperature, 4 hr and 24 hrs) is recorded as “lower solubility”. The “form change of residual solid in phosphate (pH 6.0) alternative media” value in data set [2] (phosphate (pH 6.0) alternative media, ambient temperature, listed as Trifluoroacetate Type A) was “firstly converted to Type B at 4 hrs and back to Type A at 24 hrs”. The “solid form stability at ambient conditions” value in data set [4] was “converted to Type B”.
For the molecule `CC(C)[C@@H](C)[C@@]1(C)CC[C@]2(C)[C@H]3CC[C@@H]4[C@@]5(COC[C@]4(C)[C@@H](OC[C@](C)(N)C(C)(C)C)[C@H](n4ncnc4-c4ccncc4)C5)C3=CC[C@@]2(C)[C@@H]1C(=O)O.O=C(O)CC(O)(CC(=O)O)C(=O)O` [SCY-078 citrate Type E], in data set [4], the “solid form stability at ambient conditions” value is on record as “not stable”.
